Laboratory results as given in ChEMBL document CHEMBL5678818, “Discovery of potent SOS1 inhibitors that block RAS activation via disruption of the RAS-SOS1 interaction” (Proc Natl Acad Sci U S A, 2019).

Key:
[1] = molecular target: Eukaryotic translation initiation factor 2-alpha kinase 1 (Homo sapiens) (UniProt Q9BQI3); assay: Inhibition of EIF2AK1 (unknown origin) assessed as residual activity at 1000 nM by KINOMEscan analysis relative to control
[2] = molecular target: T1, Muscle, skeletal receptor tyrosine-protein kinase (Homo sapiens) (UniProt O15146); assay: Inhibition of MUSK (unknown origin) assessed as residual activity at 1000 nM by KINOMEscan analysis relative to control
T1 sequence (whole entry): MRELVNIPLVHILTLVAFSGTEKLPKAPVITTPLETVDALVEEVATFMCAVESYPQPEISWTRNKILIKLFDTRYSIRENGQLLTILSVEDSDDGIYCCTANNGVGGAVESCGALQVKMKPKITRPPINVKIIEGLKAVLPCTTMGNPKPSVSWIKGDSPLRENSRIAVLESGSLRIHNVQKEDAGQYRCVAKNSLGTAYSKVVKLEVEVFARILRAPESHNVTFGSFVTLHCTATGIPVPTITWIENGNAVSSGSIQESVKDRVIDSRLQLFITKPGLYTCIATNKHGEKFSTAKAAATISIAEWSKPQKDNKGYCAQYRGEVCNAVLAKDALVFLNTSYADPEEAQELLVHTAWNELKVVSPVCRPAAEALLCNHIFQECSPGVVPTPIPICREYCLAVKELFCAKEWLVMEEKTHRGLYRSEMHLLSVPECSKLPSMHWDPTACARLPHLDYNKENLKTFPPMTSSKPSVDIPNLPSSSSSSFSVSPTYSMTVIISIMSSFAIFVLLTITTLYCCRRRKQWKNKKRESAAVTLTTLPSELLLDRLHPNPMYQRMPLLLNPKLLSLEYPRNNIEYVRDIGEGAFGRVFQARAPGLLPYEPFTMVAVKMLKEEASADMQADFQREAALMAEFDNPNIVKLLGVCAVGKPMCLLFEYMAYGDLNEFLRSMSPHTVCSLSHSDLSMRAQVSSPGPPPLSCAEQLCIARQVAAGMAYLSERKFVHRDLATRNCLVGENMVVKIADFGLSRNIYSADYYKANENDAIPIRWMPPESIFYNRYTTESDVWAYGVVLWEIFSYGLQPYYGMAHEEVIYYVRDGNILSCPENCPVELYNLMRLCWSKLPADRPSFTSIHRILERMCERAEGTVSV

[3] = molecular target: T2, Phosphatidylinositol 3-kinase C2 domain-containing subunit gamma (Homo sapiens) (UniProt O75747); assay: Inhibition of PIK3C2G (unknown origin) assessed as residual activity at 1000 nM by KINOMEscan analysis relative to control
T2 sequence (whole entry): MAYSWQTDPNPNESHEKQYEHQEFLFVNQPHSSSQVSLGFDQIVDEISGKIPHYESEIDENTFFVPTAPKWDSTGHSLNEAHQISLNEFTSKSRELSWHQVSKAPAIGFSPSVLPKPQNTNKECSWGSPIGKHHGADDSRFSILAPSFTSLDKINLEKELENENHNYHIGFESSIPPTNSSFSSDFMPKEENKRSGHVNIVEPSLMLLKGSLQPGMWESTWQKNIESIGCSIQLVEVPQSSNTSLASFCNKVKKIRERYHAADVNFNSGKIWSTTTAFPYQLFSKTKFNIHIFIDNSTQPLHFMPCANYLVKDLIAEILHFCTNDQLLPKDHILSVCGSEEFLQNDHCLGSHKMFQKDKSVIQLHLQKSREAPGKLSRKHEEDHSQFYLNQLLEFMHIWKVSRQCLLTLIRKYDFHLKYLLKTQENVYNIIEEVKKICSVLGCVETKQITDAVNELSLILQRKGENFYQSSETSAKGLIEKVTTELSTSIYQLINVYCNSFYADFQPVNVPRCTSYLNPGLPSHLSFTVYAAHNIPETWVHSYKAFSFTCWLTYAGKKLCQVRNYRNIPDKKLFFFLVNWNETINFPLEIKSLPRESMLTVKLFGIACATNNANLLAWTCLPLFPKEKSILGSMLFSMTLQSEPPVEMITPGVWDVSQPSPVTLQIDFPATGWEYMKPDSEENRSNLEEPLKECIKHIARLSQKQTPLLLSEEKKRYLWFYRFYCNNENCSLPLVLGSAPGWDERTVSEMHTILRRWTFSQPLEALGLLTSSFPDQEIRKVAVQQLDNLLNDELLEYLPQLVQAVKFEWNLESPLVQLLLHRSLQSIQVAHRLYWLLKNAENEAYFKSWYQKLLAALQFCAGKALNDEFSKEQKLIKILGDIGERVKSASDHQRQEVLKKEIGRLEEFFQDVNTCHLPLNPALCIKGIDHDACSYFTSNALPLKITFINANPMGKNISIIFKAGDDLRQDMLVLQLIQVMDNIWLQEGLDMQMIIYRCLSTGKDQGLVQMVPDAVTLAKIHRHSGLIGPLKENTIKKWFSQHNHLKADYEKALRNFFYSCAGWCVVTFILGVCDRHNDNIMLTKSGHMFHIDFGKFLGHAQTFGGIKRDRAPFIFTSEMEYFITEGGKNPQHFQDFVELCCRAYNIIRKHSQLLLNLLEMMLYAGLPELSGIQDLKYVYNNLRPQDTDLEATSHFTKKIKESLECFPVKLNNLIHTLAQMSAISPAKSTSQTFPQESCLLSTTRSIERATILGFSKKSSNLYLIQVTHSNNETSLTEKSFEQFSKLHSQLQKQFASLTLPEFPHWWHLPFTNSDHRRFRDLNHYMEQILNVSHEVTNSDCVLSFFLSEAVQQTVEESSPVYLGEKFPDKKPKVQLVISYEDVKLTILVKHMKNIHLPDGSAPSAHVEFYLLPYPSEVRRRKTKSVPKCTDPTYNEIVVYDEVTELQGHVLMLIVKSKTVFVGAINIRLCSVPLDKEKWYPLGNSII

Chain of Eukaryotic translation initiation factor 2-alpha kinase 1 (Homo sapiens) (Q9BQI3 whole entry): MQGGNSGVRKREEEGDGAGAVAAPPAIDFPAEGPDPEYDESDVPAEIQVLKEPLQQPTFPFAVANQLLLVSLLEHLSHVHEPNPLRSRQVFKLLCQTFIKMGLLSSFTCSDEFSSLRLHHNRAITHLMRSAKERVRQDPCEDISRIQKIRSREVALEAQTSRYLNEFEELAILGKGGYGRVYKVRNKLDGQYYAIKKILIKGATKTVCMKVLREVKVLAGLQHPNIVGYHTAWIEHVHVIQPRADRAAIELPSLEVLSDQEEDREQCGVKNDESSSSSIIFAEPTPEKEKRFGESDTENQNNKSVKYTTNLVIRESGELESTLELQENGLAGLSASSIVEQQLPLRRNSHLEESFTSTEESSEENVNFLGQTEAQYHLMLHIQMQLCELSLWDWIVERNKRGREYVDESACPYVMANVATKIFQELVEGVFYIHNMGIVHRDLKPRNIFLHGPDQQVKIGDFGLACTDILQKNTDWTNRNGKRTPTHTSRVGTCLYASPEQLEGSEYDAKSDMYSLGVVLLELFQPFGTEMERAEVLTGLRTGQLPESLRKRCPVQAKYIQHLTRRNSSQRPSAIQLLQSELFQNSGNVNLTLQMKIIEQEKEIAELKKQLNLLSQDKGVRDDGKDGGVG

Row | Structure (SMILES) | Activity [1] [%] | Activity [2] [%] | Activity [3] [%]
1 | COc1cc2nc(C)nc(N[C@H](C)c3cccc(-c4cn[nH]c4)c3)c2cc1OC | 100 | 91 | 87
2 | COc1cc2ncnc(N[C@H](C)c3cccc4ccccc34)c2cc1OC | 88 | 97 | 35
